25 compounds from patent publication US20230416228A1 (Forkhead Biotherapeutics, Inc., priority 2020, published 2023) can be followed below.

Each structure is given as a SMILES string. Some results are limits rather than exact numbers.

In the assay the target is T1, human FOXO1 (constitutively active form Thr24Ala, Ser256Ala, Ser319Ala) (Homo sapiens, UniProt Q12778, S256A/S319A/T24A).
T1 construct: expressed in transfected cells; host or cells: HEK293 cells transfected with pcDNA3.1 plasmid
T1 sequence (Q12778 whole entry T24A/S256A/S319A): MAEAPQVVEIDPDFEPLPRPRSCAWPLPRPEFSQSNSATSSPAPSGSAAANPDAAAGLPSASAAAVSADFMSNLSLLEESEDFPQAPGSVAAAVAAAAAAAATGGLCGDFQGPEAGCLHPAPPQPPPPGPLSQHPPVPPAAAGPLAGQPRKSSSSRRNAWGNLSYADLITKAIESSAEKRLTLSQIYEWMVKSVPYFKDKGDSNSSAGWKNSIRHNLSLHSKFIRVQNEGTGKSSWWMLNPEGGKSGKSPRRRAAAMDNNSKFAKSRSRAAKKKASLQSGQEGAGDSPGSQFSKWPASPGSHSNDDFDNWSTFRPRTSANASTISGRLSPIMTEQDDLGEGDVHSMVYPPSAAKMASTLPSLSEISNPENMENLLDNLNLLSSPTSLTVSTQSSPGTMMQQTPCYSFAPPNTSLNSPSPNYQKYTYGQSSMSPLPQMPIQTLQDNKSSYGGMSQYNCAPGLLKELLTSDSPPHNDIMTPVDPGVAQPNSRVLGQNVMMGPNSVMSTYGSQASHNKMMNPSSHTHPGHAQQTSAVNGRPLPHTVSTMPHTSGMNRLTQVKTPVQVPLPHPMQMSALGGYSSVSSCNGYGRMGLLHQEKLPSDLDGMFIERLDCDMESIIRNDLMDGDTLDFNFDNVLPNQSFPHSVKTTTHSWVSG
In words: FOXO1 inhibitor activity assay: cell-based transcriptional (luciferase) reporter assay in HEK293 cells. Conditions: HEK293 cells transfected with insulin response element firefly luciferase reporter, FOXO1 and Renilla luciferase; 10-point dose response 50 μM to 2.5 nM; 24 hours. On the procedure: The inhibitory activities of compounds on FOXO1 were determined by a cell-based transcriptional reporter assay. HEK293 cells were plated onto either 384-well poly-D-lysine coated plates (at 7500 cells per well) or 96-well plates (at 20000 cells per well) in low glucose Eagle's Minimum Essential Medium (EMEM) containing 1% fetal bovine serum, and incubated overnight at 37° C. and 5% CO2. […] Duplicate wells were included for each treatment condition. Cells were incubated for 24 hours at 37° C. and 5% CO2. Luciferase activities in each well were measured using Dual-Glog Luciferase Assay System (Promega) according to manufacturer's protocol and an Envision plate reader suitable for luminescence detection. Firefly luciferase activity was divided by Renilla luciferase activity to calculate a ratio for each well. The ratio in wells containing cells transfected with all 3 plasmids listed above and receiving only DMSO without compound addition was set to 100%. The ratio in wells containing cells transfected with plasmid (1), plasmid (3), and pcDNA3.1 containing the open reading frame of red fluorescent protein (instead of human FOXO1) and treated with DMSO was set to 0%. The ratio in each well receiving compound treatment was normalized and expressed as a percentage. Data were fit by 4-parameter logistic regression to determine IC50 and maximal inhibition values. Each compound was tested in a minimum of 2 independent experiments.
On the technique in general: Reporter assays use an easily measured gene product as a stand-in for the process of interest.
As for `Cn1nc(NC(=O)c2ccc(N3CCOCC3)cc2)cc1-c1nc2ccccc2[nH]1` [Compound A-95, N-[5-(1H-benzimidazol-2-yl)-1-methyl-pyrazol-3-yl]-4-morpholino-benzamide], the IC50 fell in the range of 100 to 300 nM.

Compound `O=C(Nc1cc(-c2nc3cc(OC(F)(F)F)ccc3[nH]2)[nH]n1)c1ccc(N2CCC(O)CC2)nc1` [Compound A-108, 6-(4-hydroxy-1-piperidyl)-N-[5-[5-(trifluoromethoxy)-1H-benzimidazol-2-yl]-1H-pyrazol-3-yl]pyridine-3-carboxamide] gave an IC50 of over 1000 nM.

In turn, `O=C(Nc1cc(-c2nc3ccccc3[nH]2)[nH]n1)c1ccc(N2CCN(C3COC3)CC2)cc1` [Compound A-220, N-[5-(1H-benzimidazol-2-yl)-1H-pyrazol-3-yl]-4-[4-(oxetan-3-yl)piperazin-1-yl]benzamide] displayed a concentration for half-maximal inhibition (IC50) of under 100 nM.

The compound `COc1cc(F)c2[nH]c(-c3cc(NC(=O)c4ccc(N5CCN(C)CC5)nc4)nn3C)nc2c1` [Compound A-191, N-[5-(7-fluoro-5-methoxy-1H-benzimidazol-2-yl)-1-methyl-pyrazol-3-yl]-6-(4-methylpiperazin-1-yl)pyridine-3-carboxamide] showed an IC50 of 100 to 300 nM.

Consider `COCCN1CCN(c2ccc(C(=O)Nc3cc(-c4nc5ccccc5[nH]4)[nH]n3)cc2)CC1` [Compound A-174, N-[5-(1H-benzimidazol-2-yl)-1H-pyrazol-3-yl]-4-[4-(2-methoxyethyl)-piperazin-1-yl]benzamide], for which the IC50 was under 100 nM.

`CN1CCN(c2ccc(C(=O)Nc3cc(-c4nc5ccccc5[nH]4)n(C)n3)cn2)CC1=O` [Compound A-246, N-[5-(1H-benzimidazol-2-yl)-1-methyl-pyrazol-3-yl]-6-(4-methyl-3-oxo-piperazin-1-yl)pyridine-3-carboxamide] returned a half-inhibitory concentration (IC50) of 100 to 300 nM.

As for `Cn1nc(NC(=O)c2ccc(N3CCC(N4CCOCC4)CC3)nn2)cc1-c1nc2ccccc2[nH]1` [Compound A-207, N-[5-(1H-benzimidazol-2-yl)-1-methyl-pyrazol-3-yl]-6-(4-morpholino-1-piperidyl)pyridazine-3-carboxamide], the IC50 fell in the range of 300 to 1000 nM.

For the compound `O=C(Nc1cc(-c2nc3ccccc3[nH]2)[nH]n1)c1ccc(N2CCC[C@H]2CO)nc1` [Compound A-52, N-[5-(1H-benzimidazol-2-yl)-1H-pyrazol-3-yl]-6-[(2S)-2-(hydroxymethyl)-pyrrolidin-1-yl]pyridine-3-carboxamide], the IC50 was in the range of 100 to 300 nM.

Regarding `COc1ccc2[nH]c(-c3cc(NC(=O)c4ccc(N5CCC(CO)CC5)nc4)n[nH]3)nc2c1` [Compound A-109, 6-[4-(hydroxymethyl)-1-piperidyl]-N-[5-(5-methoxy-1H-benzimidazol-2-yl)-1H-pyrazol-3-yl]pyridine-3-carboxamide], the IC50 is under 100 nM.

`COCCNc1ccc(C(=O)Nc2cc(-c3nc4ccccc4[nH]3)[nH]n2)cc1Cl` [Compound A-39, N-[5-(1H-benzimidazol-2-yl)-1H-pyrazol-3-yl]-3-chloro-4-(2-methoxyethylamino)benzamide]: the IC50 was under 100 nM.

In the case of `CN(C)C1CCN(c2ccc(C(=O)Nc3cc(-c4nc5cccc(F)c5[nH]4)n(C)n3)cn2)CC1` [Compound A-139, 6-[4-(dimethylamino)-1-piperidyl]-N-[5-(4-fluoro-1H-benzimidazol-2-yl)-1-methyl-pyrazol-3-yl]pyridine-3-carboxamide], the IC50 is 100 to 300 nM.

With `Cn1nc(NC(=O)c2ccc(N3CCN4C(=O)CC[C@H]4C3)nc2)cc1-c1nc2ccccc2[nH]1` [Compound A-250], the IC50 fell in the range of 300 to 1000 nM.

In turn, `COC1CCN(c2ccc(C(=O)Nc3cc(-c4nc5cccc(F)c5[nH]4)n(C)n3)cn2)CC1` [Compound A-157] yielded an IC50 of 100 to 300 nM.

`Cn1nc(NC(=O)c2ccc(N3CCN(C(=O)CO)CC3)nc2)cc1-c1nc2ccccc2[nH]1` [Compound A-269, N-[5-(1H-benzimidazol-2-yl)-1-methyl-pyrazol-3-yl]-6-[4-(2-hydroxyacetyl)piperazin-1-yl]pyridine-3-carboxamide]: the half-inhibitory concentration (IC50) lay within 100 to 300 nM.

In turn, `Cc1cc(C(=O)Nc2cc(-c3nc4ccccc4[nH]3)[nH]n2)ccc1OCCO` [Compound A-113, N-[5-(1H-benzimidazol-2-yl)-1H-pyrazol-3-yl]-4-(2-hydroxyethoxy)-3-methyl-benzamide] gave an IC50 of under 100 nM.

In turn, `CC(O)CN1CCN(c2ccc(C(=O)Nc3cc(-c4nc5ccccc5[nH]4)n(C)n3)cc2)CC1` (stereo not shown) [A-257, N-[5-(1H-benzimidazol-2-yl)-1-methyl-pyrazol-3-yl]-4-[4-(2-hydroxypropyl)piperazin-1-yl]benzamide] came in with an IC50 of under 100 nM.

Regarding `CN1CCN(c2ccc(C(=O)Nc3cc(-c4nc5ccccc5[nH]4)n(C)n3)cc2)CC1=O` [Compound A-235, N-[5-(1H-benzimidazol-2-yl)-1-methyl-pyrazol-3-yl]-4-(4-methyl-3-oxo-piperazin-1-yl)benzamide], the IC50 was in the range of 100 to 300 nM.

For the compound `COc1ccc(C(=O)Nc2n[nH]c(-c3nc4ccccc4[nH]3)c2F)cc1Cl` [Compound A-76, N-[5-(1H-benzimidazol-2-yl)-4-fluoro-1H-pyrazol-3-yl]-3-chloro-4-methoxy-benzamide], the IC50 was over 1000 nM.

Compound `Cc1nc(N2CCN(C)CC2)ccc1C(=O)Nc1cc(-c2nc3ccccc3[nH]2)n(C)n1` [Compound A-253, N-[5-(1H-benzimidazol-2-yl)-1-methyl-pyrazol-3-yl]-2-methyl-6-(4-methylpiperazin-1-yl)pyridine-3-carboxamide] had an IC50 of 100 to 300 nM.

Turning to `Cn1nc(NC(=O)c2ccc(N3CCN4C(=O)OCC4C3)nc2)cc1-c1nc2ccccc2[nH]1` (stereo not shown) [Compound A-276, N-[5-(1H-benzimidazol-2-yl)-1-methyl-pyrazol-3-yl]-6-(3-oxo-5,6,8,8a-tetrahydro-1H-oxazolo[3,4-a]pyrazin-7-yl)pyridine-3-carboxamide], the IC50 is under 100 nM.

Turning to `CN1CCN(c2cnc(C(=O)Nc3cc(-c4nc5ccccc5[nH]4)[nH]n3)cn2)CC1` [Compound A-179, N-[5-(1H-benzimidazol-2-yl)-1H-pyrazol-3-yl]-5-(4-methylpiperazin-1-yl)pyrazine-2-carboxamide], the IC50 lay within 100 to 300 nM.

Take `Cn1nc(NC(=O)c2ccc(N3CCC(N4CCOCC4)CC3)nc2)cc1-c1nc2cccc(F)c2[nH]1` [Compound A-173]: the IC50 lay within 100 to 300 nM.

The compound `CCOC(=O)[C@H]1CCCN1c1ccc(C(=O)Nc2cc(-c3nc4cc(F)ccc4[nH]3)n(C)n2)cn1` [Compound A-146, ethyl (2R)-1-[5-[[5-(5-fluoro-1H-benzimidazol-2-yl)-1-methyl-pyrazol-3-yl]carbamoyl]-2-pyridyl]pyrrolidine-2-carboxylate] gave a concentration for half-maximal inhibition (IC50) of over 1000 nM.

Turning to `CC1CN(c2ccc(C(=O)Nc3cc(-c4nc5ccccc5[nH]4)n(C)n3)cn2)CC(CO)O1` (single isomer, unassigned) [Compound A-294, N-[5-(1H-benzimidazol-2-yl)-1-methyl-pyrazol-3-yl]-6-[2-(hydroxymethyl)-6-methyl-morpholin-4-yl]pyridine-3-carboxamide], the half-maximal inhibitory concentration (IC50) is under 100 nM.

The compound `Cn1nc(NC(=O)c2ccc(N3CCC4(CCCO4)CC3)nc2)cc1-c1nc2ccccc2[nH]1` [Compound A-273, N-[5-(1H-benzimidazol-2-yl)-1-methyl-pyrazol-3-yl]-6-(1-oxa-8-azaspiro[4.5]decan-8-yl)pyridine-3-carboxamide] gave an IC50 of 100 to 300 nM.

What is called IC50 is the point on the concentration scale where inhibition reaches its midpoint.
